Reference: US4822892A, “N-heterocyclic platinum complexes” (Chugai Seiyaku Kabushiki Kaisha, priority 1984, dated 1989)

Tests used:
[1] = system: Colon 26 carcinoma; assay: In vivo antitumor activity against Colon 26 carcinoma, single i.p. administration (Experiment 1); set-up: species or system CDF1/Crj strain male mouse; conditions: tumor weighed 10 days after administration
Description: A small piece of Colon 26 tumor (1-2 mm^3) was subcutaneously implanted in a lateral region of abdomen of a CDF1 /Crj strain male mouse (6 weeks old). Four days after the implantation, mice with the almost same size of tumor were divided into groups of 5-6 members each, and each mouse was intraperitoneally administered the test compound. Ten days after the administration, each of the mice was sacrificed, and the tumor was weighed to calculate the growth inhibitory ratio (GIR) by the following equation: [formula] wherein C and T represent the mean weights of tumor of the control group and the treated group, respectively.
Cisplatin (CDDP) which is a known compound was used as a comparison.

[2] = system: Colon 26 carcinoma; assay: In vivo antitumor activity against Colon 26 carcinoma, i.p. on days 4, 6 and 8 (Experiment 2); set-up: species or system CDF1/Crj strain male mouse; conditions: 40 mg/kg i.p. on day 4, 6 and 8 after implantation; tumor weighed day 14
Method: A small piece of Colon 26 tumor (1-2 mm^3) was subcutaneously implanted in a lateral region of abdomen of a CDF1 /Crj strain male mouse (7 weeks old). Four days after the implantation, mice with the almost same size of tumor were divided into groups of 5-6 members each, and each mouse was intraperitoneally administered the test compound on day 4, 6, and 8 after implantation in a dose of 40 mg/kg one day. Fourteen days after the implantation, each mouse was sacrificed, and the tumor thereof was weighed to calculate the GIR (%) by the following equation. [formula] where C and T represent the mean weights of tumor of the control group and the group administered the test compound, respectively.

[3] = Test on side-effects: body weight and BUN (Experiment 4); format: in vivo, BDF1/Crj strain male mice
Description: BDF1 /Crj strain male mice (6 weeks old) were intraperitoneally administered the test compound, and 1, 3 and 5 days after the administration, 3 mice were saceificed to determine the body weight and the level of urea nitrogen in blood (abbreviated as BUN).

[4] = system: plasma proteins; assay: In vitro binding to plasma proteins (Experiment 3); format: in vitro ADME, SD strain rat; conditions: 37° C., 5 μg/ml of Pt, rat plasma
Method: A solution of the test compound was added to plasma obtained from SD strain rat at a ratio of 1:19 by volume which corresponded to 5 μg/ml of Pt. The mixture was incubated at 37° C. under dark. At a predetermined time, the mixture was sampled, and filtered with a molecular sieve membrane (manufactured by Amico Centriflow PMS) under centrifugation. The Pt content in the filtrate unbound Pt was assayed by an atomic absorption spectrophotometry.

[5] = cited from earlier work
[6] = 60 mg/kg i.p., 1 day after administration
[7] = 60 mg/kg i.p., 3 days after administration
[8] = 60 mg/kg i.p., 5 days after administration
[9] = 12 mg/kg i.p., 1 day after administration
[10] = 12 mg/kg i.p., 3 days after administration
[11] = 12 mg/kg i.p., 5 days after administration

| Compound | GIR (growth inhibitory ratio) ([1]; 40 mg/kg i.p. single) [%] | GIR (growth inhibitory ratio) ([1]; 60 mg/kg i.p. single) [%] | GIR (growth inhibitory ratio) ([1]; 80 mg/kg i.p. single) [%] | GIR (growth inhibitory ratio) ([1]; 120 mg/kg i.p. single) [%] | GIR (growth inhibitory ratio) ([1]; 160 mg/kg i.p. single) | CIR [2] [%] | BUN (urea nitrogen in blood, mean ± SD) [3, 6] [mg/dL] | Body weight (mean ± SD) [3, 6] [g] | BUN (urea nitrogen in blood, mean ± SD) [3, 7] [mg/dL] | Body weight (mean ± SD) [3, 7] [g] | BUN (urea nitrogen in blood, mean ± SD) [3, 8] [mg/dL] | Body weight (mean ± SD) [3, 8] [g] | also measured |
| --- | --- | --- | --- | --- | --- | --- | --- | --- | --- | --- | --- | --- | --- |
| (R)-1,1-cyclobutanedicarboxylate(2-aminomethylpyrrolidine)platinum(II) [Compound 3] | 70 | 85 | 90 | 95 | died | 95 | 18.3 ± 3.1 | 23.4 ± 1.5 | 13.8 ± 1.8 | 20.1 ± 1.2 | 13.8 ± 7.6 | 17.5 ± 0.7 | – |
| NC[C@H]1CCCN1.O=C([O-])C1(C(=O)[O-])CCC1.[Pt+2] [Compound 1, 1,1-cyclobutanedicarboxylate(2-aminomethylpyrrolidine)platinum(II)] | 79 | 87 | 98 | 97 | died | 98 | – | – | – | – | – | – | – |
| [NH2][Pt]([NH2])([Cl])[Cl] [CDDP, cisplatin, reference compound] | – | – | – | – | – | – | – | – | – | – | – | – | GIR (growth inhibitory ratio) ([1]; 4 mg/kg i.p. single): 26%; GIR (growth inhibitory ratio) ([1]; 6 mg/kg i.p. single): 51%; GIR (growth inhibitory ratio) ([1]; 8 mg/kg i.p. single): 62%; GIR (growth inhibitory ratio) ([1]; 12 mg/kg i.p. single): 79%; GIR (growth inhibitory ratio) ([1]; 16 mg/kg i.p. single): died; Percent binding to plasma proteins ([4]; 1 hr incubation): 16%; Percent binding to plasma proteins ([4]; 4 hr incubation): 62%; Percent binding to plasma proteins ([4]; 8 hr incubation): 86%; Percent binding to plasma proteins ([4]; 24 hr incubation): 93%; BUN (urea nitrogen in blood, mean ± SD) [3, 9]: 23.3 ± 4.7 mg/dL; Body weight (mean ± SD) [3, 9]: 24.6 ± 1.1 g; BUN (urea nitrogen in blood, mean ± SD) [3, 10]: 38.5 ± 28.9 mg/dL; Body weight (mean ± SD) [3, 10]: 22.55 ± 1.1 g; BUN (urea nitrogen in blood, mean ± SD) [3, 11]: 65.2 ± 31.5 mg/dL; Body weight (mean ± SD) [3, 11]: 19.0 ± 1.5 g; antitumor activity (in words) ([5]; Rosenberg et al, Nature 222, 385 (1969)): has antitumor activity; nephrotoxicity (in words) ([5]; known platinum complexes including CDDP): very serious nephrotoxicity |
| cis-dichloro-trans-dihydroxy(2-aminomethylazetidine)platinum(IV) [Compound 19] | 60 | 77 | 85 | 92 | 95% | – | – | – | – | – | – | – | – |
| (S)-1,1-cyclobutanedicarboxylate(2-aminomethylpyrrolidine)platinum(II) [Compound 2] | 73 | 88 | 94 | 98 | died | 99 | 20.0 ± 2.6 | 23.1 ± 1.4 | 17.7 ± 3.1 | 19.9 ± 1.6 | 15.4 ± 5.5 | 17.9 ± 1.1 | – |
